Like-named read-outs stand apart in the source and are kept apart here.
What was measured:
FGFR1 (UP) = FGFR1 (UP) (Homo sapiens (Human), UniProt P11362); experiment: FGFR Enzymatic Assay, FGFR1 un-phosphorylated
ALK2 = ALK2 (Homo sapiens (Human), UniProt Q04771); experiment: ALK2 Cellular Assay (phospho SMAD1 HTRF, BMP-7 stimulated HeLa cells); type: cell-based; conditions: read-out: ALK2 Cellular Assay PSMAD
Protocol: HeLa cells were cultured in MEM media with 10% FBS. […] HeLa cells were plated in 96 well flat bottomed plate at 50,000 cells per well and incubated overnight. Next day, media was removed and 50 μL of fresh complete media was added. 5 μL compound was added to cells (3 μM final concentration at highest) and incubated for 60 min at 37° C. 200 ng/ml BMP-7 was added and incubated for 30 min at 37° C. After incubation, the media was removed, washed 2×PBS, and proceeded with HTRF kit according to Cisbio HTRF kit instructions for measuring the Phospho SMAD1 (S463/S465). Finally, both the donor and acceptor were added into 384 well plates and incubated at room temperature overnight and the HTRF signal was measured via Pherastar the next day.

FGFR3 (UP) = FGFR3 (UP) (Homo sapiens (Human), UniProt P22607); experiment: FGFR Enzymatic Assay, FGFR3 un-phosphorylated
Protocol: (§1) The inhibitor potency of the exemplified compounds was determined in an enzyme discontinuous assay that measures peptide phosphorylation using FRET measurements to detect product formation. Inhibitors were serially diluted in DMSO and a volume of 0.2 μL was transferred to the wells of a 384-well plate. For the isoforms of FGFR (−1, −2, −3 wild-type and mutant isoforms, −4) including phosphorylated (P) and un-phosphorylated (UP) proteins, a 5 μL/well volume of enzyme diluted in assay buffer (50 mM HEPES, 10 mM MgCl2, 1 mM EGTA, 0.01% Tween-20, 5 mM DTT, pH 7.5) was added to the plate and pre-incubated with inhibitor for 5 to 15 minutes at ambient temperature. Appropriate controls (enzyme blank and enzyme with no inhibitor) were included on the plate. The reaction was initiated by the addition of a 5 μL/well volume containing both biotinylated [sequence] […] The plate was allowed to equilibrate for −10 minutes at ambient temperature before scanning on a PheraStar plate reader (BMG Labtech) instrument.
(§2) Either GraphPad prism or XLfit was used to analyze the data. The IC50 values were derived by fitting the data to a four parameter logistic equation producing a sigmoidal dose-response curve with a variable Hill coefficient. Prism equation: Y=Bottom+(Top−Bottom)/(1+10^((LogIC50−X)*Hill slope)); XLfit equation: Y=(A+((B−A)/(1+((X/C)^D)))) where X is the logarithm of inhibitor concentration and Y is the response.

ALK2 (aa 147-end) = ALK2 (aa 147-end) (Homo sapiens (Human), UniProt Q04771); experiment: ALK2 HTRF Assay; type: biochemical
Protocol: The enzymatic assays were conducted in white 384-well polystyrene plates in a final volume of 8 μL. The inhibitors were serially diluted in DMSO and added to the plate wells prior to addition of the other reaction components. The assays were carried out at 25° C. in the assay buffer (50 mM HEPES, pH 7.1, 10% Glycerol, 0.01% Brij50, 10 mM MgCl2, 1 mM EGTA, 5 mM DTT, and 0.01% BSA), containing 50 nM LANCE Ultra ULight™-DNA Topoisomerase 2-alpha peptide (Perkin Elmer TRF0130), and 3 uM, 100 uM or 1 mM ATP (as specified). […] The reaction was read on a PHERAstar FS plate reader (BMG Labtech). IC50 determination was performed by fitting percent control activity versus the log of the inhibitor concentration using the IDBS XLFit and GraphPad Prism 5.0 software.

FGFR2 (P) = FGFR2 (P) (Homo sapiens (Human), UniProt P21802); experiment: FGFR Enzymatic Assay, FGFR2 phosphorylated; conditions: phosphorylated enzyme, ATP near or below Km
Protocol: as §1, §2

RT112 cells = experiment: Luminescent Viability Assay (LVA, FGFR3); type: cell-based; conditions: Homo sapiens, RT-112, 72 h, 3 days, CellTiter-Glo
Protocol: RT112 cells were purchased from ATCC (Manassas, Va.) and maintained in RPMI, 10% FBS (Gibco/Life Technologies). To measure the effect of test compounds on the viability of cells, the cells were plated with RPMI 10% FBS (5×10^3 cells/well/in 50 μL) into black 96-well Greiner polystyrene in the presence or absence of 50 μl of a concentration range of test compounds. After 3 days, 100 μl of CellTiter-Glo Reagent (Promega) was added. Luminescence was read with a TopCount (PerkinElmer). IC50 determination was performed by fitting the curve of percent inhibition versus the log of the inhibitor concentration using the GraphPad Prism 5.0 software.

[1] = read-out: FGFR1 (UP) IC50, un-phosphorylated enzyme, ATP near or below Km
[2] = read-out: FGFR3 (UP) IC50, un-phosphorylated enzyme, ATP near or below Km
[3] = read-out: ALK2 3 μM IC50, 3 uM ATP
[4] = HeLa cells, 200 ng/ml BMP-7, Phospho SMAD1 (S463/S465) HTRF
[5] = read-out: ALK2 100 μM IC50, 100 uM ATP

ALK2 (aa 147-end), sequence (Q04771 147-509): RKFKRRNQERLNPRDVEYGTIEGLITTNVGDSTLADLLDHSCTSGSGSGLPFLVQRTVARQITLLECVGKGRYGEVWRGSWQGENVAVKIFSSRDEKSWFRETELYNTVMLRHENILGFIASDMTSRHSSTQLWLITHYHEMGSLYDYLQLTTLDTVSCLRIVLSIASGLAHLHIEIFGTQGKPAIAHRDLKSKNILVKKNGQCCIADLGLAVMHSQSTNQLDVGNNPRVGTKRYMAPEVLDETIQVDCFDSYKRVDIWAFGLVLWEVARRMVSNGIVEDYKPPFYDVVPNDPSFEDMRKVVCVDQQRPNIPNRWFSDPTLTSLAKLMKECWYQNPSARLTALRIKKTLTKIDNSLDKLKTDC
FGFR3 (UP), sequence (P22607 23-806): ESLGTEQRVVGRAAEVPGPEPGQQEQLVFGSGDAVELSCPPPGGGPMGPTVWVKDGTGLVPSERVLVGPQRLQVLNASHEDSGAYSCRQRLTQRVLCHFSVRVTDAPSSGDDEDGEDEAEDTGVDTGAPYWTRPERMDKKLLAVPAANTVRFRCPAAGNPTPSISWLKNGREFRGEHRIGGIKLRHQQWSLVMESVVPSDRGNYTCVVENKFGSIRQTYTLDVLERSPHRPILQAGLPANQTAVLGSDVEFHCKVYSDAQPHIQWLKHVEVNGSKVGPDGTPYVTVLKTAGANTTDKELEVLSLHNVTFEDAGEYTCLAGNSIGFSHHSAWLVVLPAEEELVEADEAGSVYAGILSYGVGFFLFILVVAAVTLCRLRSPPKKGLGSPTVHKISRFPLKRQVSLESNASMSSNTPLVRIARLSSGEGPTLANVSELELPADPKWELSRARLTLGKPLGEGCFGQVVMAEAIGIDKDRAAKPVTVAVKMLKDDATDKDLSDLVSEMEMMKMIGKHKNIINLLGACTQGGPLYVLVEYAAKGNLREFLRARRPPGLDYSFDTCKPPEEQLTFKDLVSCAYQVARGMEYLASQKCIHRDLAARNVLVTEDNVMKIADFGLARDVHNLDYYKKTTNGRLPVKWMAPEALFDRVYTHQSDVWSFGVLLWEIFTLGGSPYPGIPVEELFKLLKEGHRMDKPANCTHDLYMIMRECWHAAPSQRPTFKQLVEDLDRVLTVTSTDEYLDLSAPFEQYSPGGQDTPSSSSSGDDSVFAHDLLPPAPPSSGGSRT
ALK2, sequence (Q04771 21-509): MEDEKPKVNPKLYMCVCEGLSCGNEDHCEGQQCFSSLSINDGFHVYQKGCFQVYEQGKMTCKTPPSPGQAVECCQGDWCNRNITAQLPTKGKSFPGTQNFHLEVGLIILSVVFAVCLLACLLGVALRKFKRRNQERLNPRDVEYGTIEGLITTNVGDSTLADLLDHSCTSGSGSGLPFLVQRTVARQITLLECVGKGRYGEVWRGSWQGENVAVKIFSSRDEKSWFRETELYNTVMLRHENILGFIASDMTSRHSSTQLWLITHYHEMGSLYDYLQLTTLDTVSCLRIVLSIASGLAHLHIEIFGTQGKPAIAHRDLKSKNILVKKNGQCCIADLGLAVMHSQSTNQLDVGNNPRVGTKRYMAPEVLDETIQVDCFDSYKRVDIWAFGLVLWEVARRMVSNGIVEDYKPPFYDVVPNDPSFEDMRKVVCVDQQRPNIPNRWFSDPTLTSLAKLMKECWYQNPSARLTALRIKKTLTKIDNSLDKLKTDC
FGFR2 (P), sequence (P21802 22-821): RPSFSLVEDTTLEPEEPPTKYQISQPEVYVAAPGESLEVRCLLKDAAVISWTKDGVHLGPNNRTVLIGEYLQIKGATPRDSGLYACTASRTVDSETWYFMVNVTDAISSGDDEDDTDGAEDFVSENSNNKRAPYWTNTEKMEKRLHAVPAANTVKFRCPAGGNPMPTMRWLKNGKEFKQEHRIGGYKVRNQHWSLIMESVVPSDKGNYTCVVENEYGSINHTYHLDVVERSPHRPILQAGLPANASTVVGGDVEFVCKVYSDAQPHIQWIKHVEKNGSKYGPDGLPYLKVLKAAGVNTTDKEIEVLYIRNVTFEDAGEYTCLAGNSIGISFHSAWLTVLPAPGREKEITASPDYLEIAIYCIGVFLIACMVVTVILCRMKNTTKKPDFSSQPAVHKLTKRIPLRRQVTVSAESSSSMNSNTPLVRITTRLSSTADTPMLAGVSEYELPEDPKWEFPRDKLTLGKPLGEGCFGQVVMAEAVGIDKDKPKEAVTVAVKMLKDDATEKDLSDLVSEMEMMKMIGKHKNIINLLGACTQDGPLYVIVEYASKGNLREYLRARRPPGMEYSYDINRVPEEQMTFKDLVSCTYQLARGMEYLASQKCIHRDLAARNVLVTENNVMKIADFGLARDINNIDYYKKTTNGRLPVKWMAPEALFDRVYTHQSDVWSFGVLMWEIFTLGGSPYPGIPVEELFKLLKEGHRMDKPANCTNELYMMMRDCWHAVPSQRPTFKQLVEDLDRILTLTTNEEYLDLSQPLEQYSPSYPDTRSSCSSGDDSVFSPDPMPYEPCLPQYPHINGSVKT
FGFR1 (UP), sequence (P11362 22-822): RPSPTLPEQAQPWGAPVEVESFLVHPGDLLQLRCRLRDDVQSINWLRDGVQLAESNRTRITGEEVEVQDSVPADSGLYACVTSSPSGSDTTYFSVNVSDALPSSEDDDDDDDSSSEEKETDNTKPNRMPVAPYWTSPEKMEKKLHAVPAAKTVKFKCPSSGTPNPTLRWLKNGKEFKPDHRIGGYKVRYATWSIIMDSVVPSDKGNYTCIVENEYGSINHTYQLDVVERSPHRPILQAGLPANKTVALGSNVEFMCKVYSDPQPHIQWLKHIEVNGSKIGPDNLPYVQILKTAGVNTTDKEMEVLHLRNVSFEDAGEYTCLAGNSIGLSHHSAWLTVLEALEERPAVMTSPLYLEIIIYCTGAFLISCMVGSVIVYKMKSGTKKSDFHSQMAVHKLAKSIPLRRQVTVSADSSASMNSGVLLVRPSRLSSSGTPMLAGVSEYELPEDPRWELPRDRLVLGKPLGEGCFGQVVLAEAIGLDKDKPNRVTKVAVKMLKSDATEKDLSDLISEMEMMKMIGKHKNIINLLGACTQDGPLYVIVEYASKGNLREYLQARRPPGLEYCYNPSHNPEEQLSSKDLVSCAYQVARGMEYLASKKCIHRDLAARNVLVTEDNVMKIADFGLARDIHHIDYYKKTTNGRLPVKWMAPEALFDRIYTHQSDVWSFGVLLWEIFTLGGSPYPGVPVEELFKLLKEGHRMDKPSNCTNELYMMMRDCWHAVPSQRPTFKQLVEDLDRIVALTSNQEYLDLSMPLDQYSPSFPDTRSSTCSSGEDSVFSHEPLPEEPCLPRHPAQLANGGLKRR

| IC50 (ALK2 (aa 147-end); ALK2 100 μM IC50, 100 uM ATP) | IC50 (ALK2 (aa 147-end); ALK2 1 mM IC50, 1 mM ATP) | IC50 (ALK2 (aa 147-end); [3]) | IC50 (FGFR1 (UP)) | IC50 (ALK2; [4]) | IC50 (FGFR3 (UP)) | IC50 (ALK2 (aa 147-end); [5]) | IC50 (FGFR2 (P); FGFR2 (P) IC50 (nM)) | IC50 (ALK2 (aa 147-end); ALK2 3 μM IC50, 3 uM ATP) | SMILES | IC50 (FGFR1 (UP); [1]) | IC50 (ALK2) | IC50 (FGFR3 (UP); [2]) | IC50 (FGFR2 (P); read-out: FGFR2 (P) IC50) | IC50 (RT112 cells) |
| --- | --- | --- | --- | --- | --- | --- | --- | --- | --- | --- | --- | --- | --- | --- |
|  | 100 to 500 nM | < 100 nM | 100 to 500 nM | 100 to 500 nM | 100 to 500 nM | < 100 nM | 100 to 500 nM |  | C[C@@H]1CN(c2ccc(-c3n[nH]c4cnc(N5CCc6c(ncn6C)C5)nc34)cn2)CCN1 [Example 18, (R)-5-(1-Methyl-1,4,6,7-tetrahydro-5H-imidazo[4,5-c]pyridin-5-yl)-3-(6-(3-methylpiperazin-1-yl)pyridin-3-yl)-1H-pyrazolo[4,3-d]pyrimidine] |  |  |  |  |  |
|  | 100 to 500 nM | < 100 nM | 500 to 2000 nM | 100 to 500 nM | 100 to 500 nM | < 100 nM | 100 to 500 nM |  | Cc1cnc2n1CCN(c1ncc3[nH]nc(-c4ccc(N5CCN[C@H](C)C5)nc4)c3n1)C2 [Example 19, (R)-5-(3-Methyl-5,6-dihydroimidazo[1,2-a]pyrazin-7(8H)-yl)-3-(6-(3-methylpiperazin-1-yl)pyridin-3-yl)-1H-pyrazolo[4,3-d]pyrimidine] |  |  |  |  |  |
|  |  |  | 100 to 500 nM |  |  |  |  |  | CCC1C(=O)N(C)CCN1c1ncc2[nH]nc(-c3cnn(C)c3)c2n1 (stereo not shown) [Example 39, 3-Ethyl-1-methyl-4-(3-(1-methyl-1H-pyrazol-4-yl)-1H-pyrazolo[4,3-d]pyrimidin-5-yl)piperazin-2-one] |  |  | < 100 nM | < 100 nM | 100 to 500 nM |
| 500 to 2000 nM |  |  | 500 to 2000 nM |  |  |  | 100 to 500 nM | 500 to 2000 nM | Cn1cc(-c2n[nH]c3cnc(N4CCc5ncccc5C4)nc23)cn1 [Example 40, 6-(3-(1-Methyl-1H-pyrazol-4-yl)-1H-pyrazolo[4,3-d]pyrimidin-5-yl)-5,6,7,8-tetrahydro-1,6-naphthyridine] |  |  | < 100 nM |  | 500 to 2000 nM |
| 500 to 2000 nM |  |  | 100 to 500 nM |  |  |  | 100 to 500 nM | 500 to 2000 nM | Cn1cc(-c2n[nH]c3cnc(N4CCn5cnc(C(F)(F)F)c5C4)nc23)cn1 [Example 41, 3-(1-Methyl-1H-pyrazol-4-yl)-5-(1-(trifluoromethyl)-5,6-dihydroimidazo[1,5-a]pyrazin-7(8H)-yl)-1H-pyrazolo[4,3-d]pyrimidine] |  |  | < 100 nM |  | 100 to 500 nM |
|  |  |  | 500 to 2000 nM |  |  |  | 100 to 500 nM |  | Cn1cc(-c2n[nH]c3cnc(N4CCc5ncsc5C4)nc23)cn1 [Example 42, 5-(3-(1-Methyl-1H-pyrazol-4-yl)-1H-pyrazolo[4,3-d]pyrimidin-5-yl)-4,5,6,7-tetrahydrothiazolo[5,4-c]pyridine] |  |  | < 100 nM |  | 100 to 500 nM |
| 500 to 2000 nM |  |  | 100 to 500 nM |  |  |  |  | 500 to 2000 nM | Cn1cc(-c2n[nH]c3cnc(N4CCc5cn[nH]c5C4)nc23)cn1 [Example 44, 3-(1-Methyl-1H-pyrazol-4-yl)-5-(1,4,5,7-tetrahydro-6H-pyrazolo[3,4-c]pyridin-6-yl)-1H-pyrazolo[4,3-d]pyrimidine] |  |  | < 100 nM | < 100 nM | 500 to 2000 nM |
|  |  |  | 100 to 500 nM |  |  |  |  |  | CC1C(=O)N(CC(F)F)CCN1c1ncc2[nH]nc(-c3cnn(C)c3)c2n1 (stereo not shown) [Example 46, 1-(2,2-Difluoroethyl)-3-methyl-4-(3-(1-methyl-1H-pyrazol-4-yl)-1H-pyrazolo[4,3-d]pyrimidin-5-yl)piperazin-2-one] |  |  | < 100 nM | < 100 nM | 100 to 500 nM |
|  |  |  | 500 to 2000 nM |  |  |  | 100 to 500 nM |  | CC(C)N1CCN(c2ncc3[nH]nc(-c4cnn(C)c4)c3n2)C(C)C1=O (stereo not shown) [Example 47, 1-Isopropyl-3-methyl-4-(3-(1-methyl-1H-pyrazol-4-yl)-1H-pyrazolo[4,3-d]pyrimidin-5-yl)piperazin-2-one] |  |  | < 100 nM |  | 500 to 2000 nM |
|  |  |  |  |  |  |  |  |  | CN1CC2CCC(C1=O)N2c1ncc2[nH]nc(-c3cnn(-c4cccnc4)c3)c2n1 (stereo not shown) [Example 69, 3-Methyl-8-(3-(1-(pyridin-3-yl)-1H-pyrazol-4-yl)-1H-pyrazolo[4,3-d]pyrimidin-5-yl)-3,8-diazabicyclo[3.2.1]octan-2-one] | < 100 nM |  | < 100 nM | < 100 nM | 100 to 500 nM |
|  |  |  |  |  |  |  |  |  | CN1CC2CCC(C1=O)N2c1ncc2[nH]nc(-c3cnn(-c4ccc(C#N)nc4)c3)c2n1 (stereo not shown) [Example 74, 5-(4-(5-(3-Methyl-2-oxo-3,8-diazabicyclo[3.2.1]octan-8-yl)-1H-pyrazolo[4,3-d]pyrimidin-3-yl)-1H-pyrazol-1-yl)picolinonitrile] | < 100 nM |  | < 100 nM | < 100 nM | 100 to 500 nM |

| SMILES | IC50 (ALK2 (aa 147-end); ALK2 100 μM IC50, 100 uM ATP) | IC50 (ALK2 (aa 147-end); ALK2 1 mM IC50, 1 mM ATP) | IC50 (ALK2 (aa 147-end); [3]) | IC50 (FGFR1 (UP)) | IC50 (ALK2; [4]) | IC50 (FGFR3 (UP)) | IC50 (ALK2 (aa 147-end); [5]) | IC50 (FGFR2 (P); FGFR2 (P) IC50 (nM)) | IC50 (ALK2 (aa 147-end); ALK2 3 μM IC50, 3 uM ATP) | IC50 (FGFR1 (UP); [1]) | IC50 (ALK2) | IC50 (FGFR3 (UP); [2]) | IC50 (FGFR2 (P); read-out: FGFR2 (P) IC50) | IC50 (RT112 cells) |
| --- | --- | --- | --- | --- | --- | --- | --- | --- | --- | --- | --- | --- | --- | --- |
| C[C@@H]1CN(c2ccc(-c3n[nH]c4cnc(N5[C@@H]6CC[C@H]5CN(c5ccc(C#N)cc5)C6)nc34)cn2)CCN1 [Example 15, 4-((1R,5S)-8-(3-(6-((R)-3-Methylpiperazin-1-yl)pyridin-3-yl)-1H-pyrazolo[4,3-d]pyrimidin-5-yl)-3,8-diazabicyclo[3.2.1]octan-3-yl)benzonitrile] | 100 to 500 nM | 500 to 2000 nM | < 100 nM |  |  |  |  |  |  | > 2000 nM | 500 to 2000 nM | > 2000 nM | > 2000 nM |  |
| Cn1cc(-c2n[nH]c3cnc(N4C5CCC4C(=O)N(CCF)C5)nc23)cn1 (stereo not shown) [Example 51, 3-(2-Fluoroethyl)-8-(3-(1-methyl-1H-pyrazol-4-yl)-1H-pyrazolo[4,3-d]pyrimidin-5-yl)-3,8-diazabicyclo[3.2.1]octan-2-one] | 500 to 2000 nM |  |  | 100 to 500 nM |  |  |  | 100 to 500 nM | 100 to 500 nM |  |  | < 100 nM |  | 500 to 2000 nM |
| CN(C)C(=O)N1CCC(n2cc(-c3n[nH]c4cnc(N5C6CCC5C(=O)N(C)C6)nc34)cn2)CC1 (stereo not shown) [Example 56, N,N-Dimethyl-4-(4-(5-(3-methyl-2-oxo-3,8-diazabicyclo[3.2.1]octan-8-yl)-1H-pyrazolo[4,3-d]pyrimidin-3-yl)-1H-pyrazol-1-yl)piperidine-1-carboxamide] |  |  |  | 100 to 500 nM |  |  |  |  |  |  |  | < 100 nM | < 100 nM | 500 to 2000 nM |
| CN1CC2CCC(C1=O)N2c1ncc2[nH]nc(-c3cnn(-c4cncc(C#N)c4)c3)c2n1 (stereo not shown) [Example 73, 5-(4-(5-(3-Methyl-2-oxo-3,8-diazabicyclo[3.2.1]octan-8-yl)-1H-pyrazolo[4,3-d]pyrimidin-3-yl)-1H-pyrazol-1-yl)nicotinonitrile] |  |  |  | 100 to 500 nM |  |  |  |  |  |  |  | < 100 nM | < 100 nM | 500 to 2000 nM |
| Cc1cc(C#N)ccc1-n1cc(-c2n[nH]c3cnc(N4C5CCC4C(=O)N(C)C5)nc23)cn1 (stereo not shown) [Example 77, 3-Methyl-4-(4-(5-(3-methyl-2-oxo-3,8-diazabicyclo[3.2.1]octan-8-yl)-1H-pyrazolo[4,3-d]pyrimidin-3-yl)-1H-pyrazol-1-yl)benzonitrile] |  |  |  | 500 to 2000 nM |  |  |  | 100 to 500 nM |  |  |  | < 100 nM |  | 500 to 2000 nM |
| CN1CC2CCC(C1=O)N2c1ncc2[nH]nc(-c3cnn(-c4ccc(C#N)c(F)c4)c3)c2n1 (stereo not shown) [Example 78, 2-Fluoro-4-(4-(5-(3-methyl-2-oxo-3,8-diazabicyclo[3.2.1]octan-8-yl)-1H-pyrazolo[4,3-d]pyrimidin-3-yl)-1H-pyrazol-1-yl)benzonitrile] |  |  |  | 100 to 500 nM |  |  |  |  |  |  |  | < 100 nM | < 100 nM | 100 to 500 nM |
